Laboratory results taken from patent US20220395464A1, “ORALLY ADMINISTERED SOLID DOSAGE FORM DRUG” (ASCENTAWITS PHARMACEUTICALS, LTD., priority 2019, published 2022).
Several values for one entry are separate records, joined by “and”; a condition that tells them apart may be missing. Identical values can stand only once. Like-named read-outs stand apart in the source and are kept apart here.

Experiment: Pharmacokinetics after single intravenous drip infusion, plasma LC-MS/MS
Format: in vivo, Philippine macaques
Conditions: for Plasma-drug concentration: AST-3424 intravenous drip infusion 0.58 mg/kg
Method: AST-3424 and AST-3424-D6 (i.e. the compound of formula I) were administered to Philippine macaques by intravenous drip infusion, and blood samples were collected at different appointed times. LC-MS/MS was used to determine concentrations of the test substances in plasma of the Philippine macaques after administration, and relevant pharmacokinetic parameters were calculated.
Preparation method: 0.447 ml of AST-3424 (0.2 mg/ml) and 0.481 ml of AST-3424-D6 (0.2 mg/ml) were added into 104.272 ml of the dissolvent, respectively, and mixed for 5 minutes to obtain colorless and clarified solutions with pH 7.0.
The four male Philippine macaques were purchased from Guangxi Xiongsen Primate Development Experiment Co., Ltd. All Philippine macaques were healthy with qualified medical examination and no abnormality. Three of animals were used for the experiment, and one of them was used to prepare blank plasma.
About 0.8 ml of blood samples were collected through femoral vein and anticoagulated with heparin sodium. Appointed times of blood collection were before administration, 0.17, 0.25, 0.5, 0.75, 1, 2, and 4 hours after administration.
The blood samples were placed on ice after collection. Next, plasma samples were separated by centrifugation, and centrifugation conditions were 3500 rpm for 10 minutes at 4° C. Then, the collected plasma samples were stored at −80° C. until analysis. The plasma samples were analyzed by LC-MS/MS by an analysis department of an experimental institution. Besides, Lower limit of quantifications (LLOQ) of AST-3424 and AST-3424-D6 detection were 1 ng/ml. The accuracy of analysis results of an accompanying standard curve and a quality control samples all met the relevant requirements of biological analysis (the accuracy of the quality control samples exceeding 66.7% was between 85˜115%) in a process of the sample detection.
According to average blood concentration data of each group at each appointed time, the pharmacokinetic parameters of the compounds were respectively computed by a pharmacokinetic computing software, a non-compartmental model. In addition, the pharmacokinetic parameters were AUC0-t, AUC0-∞, MRT0-∞, Cmax, Tmax, t1/2, etc. In the case of the concentrations of the samples whose concentration being lower than a lower limit of quantification, the following schemes were used to compute the pharmacokinetic parameters. The samples sampled before reaching Cmax shall be computed as zero value, while the samples sampled after reaching Cmax shall be computed as non-quantifiable (marked as “BLQ”).
After a single intravenous infusion of the compounds AST-3424 and AST-3424-D6 was administered to the Philippine macaques, the whole blood samples of the corresponding animals were collected at the appointed times. Next, the whole blood samples were processed and biologically analyzed to obtain concentrations of the compounds in the plasma at the different appointed times. Results of the assay were listed in Table 14 below, and corresponding means of the plasma-drug concentration-time curves are shown in FIG. 3.
According to the plasma-drug concentration data of each drug group, the pharmacokinetic parameters of each compound group were computed using the non-compartmental model of the pharmacokinetic computing software. The pharmacokinetic

[1] = AST-3424 0.58 mg/kg single intravenous infusion, plasma, individual animals 101, 102, 103, 0.58 mg/kg

C[C@H](OP(=O)(N1CC1)N1CC1)c1ccc([N+](=O)[O-])c(Oc2cccc(C(=O)N(C)C)c2)c1 [AST-3424, (S)-1-(3-(3-N,N-Dimethylaminocarbonyl)phenoxy-4-nitrophenyl)-1-ethyl-N,N′-bis(ethylene) phosphoramidate]
AUC(0−t) [1]: 430.42 ng·h/mL and 474.63 ng·h/mL | AUC(0−∞) [1]: 430.76 ng·h/mL and 475.04 ng·h/mL | Cl [1]: 22.4412 mL/min/kg and 20.3492 mL/min/kg | Cmax [1]: 677.40 ng/mL and 800.80 ng/mL | MRT(0−t) [1]: 11.4 min | MRT(0−∞) [1]: 11.4 min and 10.8 min | T1/2 [1]: 10.8 min and 11.4 min | Tmax [1]: 15 min and 30 min and 10.2 min | Vss [1]: 0.26123 L/kg and 0.21373 L/kg | Vz [1]: 0.35358 L/kg and 0.33343 L/kg | Plasma-drug concentration (0.17 hr, individual animals 101, 102, 103): 800.80 ng/mL and 685.96 ng/mL | Plasma-drug concentration (0.25 hr, individual animals 101, 102, 103): 729.91 ng/mL and 695.61 ng/mL | Plasma-drug concentration (0.5 hr, individual animals 101, 102, 103): 729.08 ng/mL and 679.80 ng/mL | Plasma-drug concentration (0.75 hr, individual animals 101, 102, 103): 157.68 ng/mL and 118.92 ng/mL | Plasma-drug concentration (1 hr, individual animals 101, 102, 103): 50.63 ng/mL and 31.86 ng/mL | Plasma-drug concentration (2 hr, individual animals 101, 102, 103, LLOQ 1 ng/ml): 1.51 ng/ ml and BLQ | Plasma-drug concentration (4 hr, individual animals 101, 102, 103, LLOQ 1 ng/ml): BLQ | AUC(0-t) (male, Philippine macaque, cynomolgus monkey, plasma, iv, 0.58 mg/kg, AST-3424 0.58 mg/kg single intravenous infusion, plasma, individual animals 101, 102, 103, read-out: AUC(0−t)): 404 ng·h/mL | AUC(0-inf) (male, Philippine macaque, cynomolgus monkey, plasma, iv, 0.58 mg/kg, AST-3424 0.58 mg/kg single intravenous infusion, plasma, individual animals 101, 102, 103, read-out: AUC(0−∞)): 409 ng·h/mL | clearance (male, Philippine macaque, cynomolgus monkey, plasma, iv, 0.58 mg/kg, AST-3424 0.58 mg/kg single intravenous infusion, plasma, individual animals 101, 102, 103, read-out: Cl (converted)): 23.6 mL/min/kg | Cmax (male, Philippine macaque, cynomolgus monkey, plasma, iv, 0.58 mg/kg, AST-3424 0.58 mg/kg single intravenous infusion, plasma, individual animals 101, 102, 103, read-out: Cmax): 696 ng/mL | half-life (male, Philippine macaque, cynomolgus monkey, plasma, iv, 0.58 mg/kg, AST-3424 0.58 mg/kg single intravenous infusion, plasma, individual animals 101, 102, 103, read-out: T1/2 (converted)): 6.6 min | Vd (male, Philippine macaque, cynomolgus monkey, plasma, iv, 0.58 mg/kg, AST-3424 0.58 mg/kg single intravenous infusion, plasma, individual animals 101, 102, 103, read-out: Vss): 0.202 L/kg | Vd (male, Philippine macaque, cynomolgus monkey, plasma, iv, 0.58 mg/kg, AST-3424 0.58 mg/kg single intravenous infusion, plasma, individual animals 101, 102, 103, read-out: Vz): 0.231 L/kg | AUC(0-t) (male, Philippine macaque, cynomolgus monkey, plasma, iv, 0.58 mg/kg, AST-3424 0.58 mg/kg single intravenous infusion, plasma, read-out: AUC(0−t), Mean): 436 ± 35.6 ng·h/mL | AUC(0-inf) (male, Philippine macaque, cynomolgus monkey, plasma, iv, 0.58 mg/kg, AST-3424 0.58 mg/kg single intravenous infusion, plasma, read-out: AUC(0−∞), Mean): 438 ± 33.5 ng·h/mL | clearance (male, Philippine macaque, cynomolgus monkey, plasma, iv, 0.58 mg/kg, AST-3424 0.58 mg/kg single intravenous infusion, plasma, read-out: Cl, Mean (converted)): 22.1 mL/min/kg | Cmax (male, Philippine macaque, cynomolgus monkey, plasma, iv, 0.58 mg/kg, AST-3424 0.58 mg/kg single intravenous infusion, plasma, read-out: Cmax, Mean): 725 ± 66.6 ng/mL | MRT last (male, Philippine macaque, cynomolgus monkey, plasma, iv, 0.58 mg/kg, AST-3424 0.58 mg/kg single intravenous infusion, plasma, read-out: MRT(0−t), Mean): 10.2 ± 1.8 min | MRT inf (male, Philippine macaque, cynomolgus monkey, plasma, iv, 0.58 mg/kg, AST-3424 0.58 mg/kg single intravenous infusion, plasma, read-out: MRT(0−∞), Mean): 10.2 ± 1.8 min | half-life (male, Philippine macaque, cynomolgus monkey, plasma, iv, 0.58 mg/kg, AST-3424 0.58 mg/kg single intravenous infusion, plasma, read-out: T1/2, Mean (converted)): 9.6 min | Tmax (male, Philippine macaque, cynomolgus monkey, plasma, iv, 0.58 mg/kg, AST-3424 0.58 mg/kg single intravenous infusion, plasma, read-out: Tmax, Mean): 18.6 min
